The source made the active and inactive calls.
Key:
[1] = MC4R antagonists, dose response, counter-screen for LGR2 antagonist project, cell-based, plate reader, cherry pick (AID 743444); assay type: functional;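 also: transfected HEK 293 cells stimulated with alpha-MSH peptide; potency of inhibitors of the alpha-MSH evoked signal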
[2] = LGR2 antagonists, dose response, cell-based, HEK293, CRE-luciferase reporter, cherry pick, set 2 (AID 743343); assay type: functional;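 also: transfected cells were stimulated with diluted bursicon conditioned medium after compound addition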
[3] = HEK293 cell cytotoxicity, dose response, cytotoxicity control, plate reader, cherry-picked samples (AID 743446); assay type: functional, cell-based
Coagulation factor XII = target: T1, Coagulation factor XII (Homo sapiens, UniProt P00748); assay type: functional;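 also: activated factor XIIa alpha cleaving a fluorogenic AMC peptide substrate; inhibitor potency from loss of enzyme activity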
T1 sequence (P00748 whole entry): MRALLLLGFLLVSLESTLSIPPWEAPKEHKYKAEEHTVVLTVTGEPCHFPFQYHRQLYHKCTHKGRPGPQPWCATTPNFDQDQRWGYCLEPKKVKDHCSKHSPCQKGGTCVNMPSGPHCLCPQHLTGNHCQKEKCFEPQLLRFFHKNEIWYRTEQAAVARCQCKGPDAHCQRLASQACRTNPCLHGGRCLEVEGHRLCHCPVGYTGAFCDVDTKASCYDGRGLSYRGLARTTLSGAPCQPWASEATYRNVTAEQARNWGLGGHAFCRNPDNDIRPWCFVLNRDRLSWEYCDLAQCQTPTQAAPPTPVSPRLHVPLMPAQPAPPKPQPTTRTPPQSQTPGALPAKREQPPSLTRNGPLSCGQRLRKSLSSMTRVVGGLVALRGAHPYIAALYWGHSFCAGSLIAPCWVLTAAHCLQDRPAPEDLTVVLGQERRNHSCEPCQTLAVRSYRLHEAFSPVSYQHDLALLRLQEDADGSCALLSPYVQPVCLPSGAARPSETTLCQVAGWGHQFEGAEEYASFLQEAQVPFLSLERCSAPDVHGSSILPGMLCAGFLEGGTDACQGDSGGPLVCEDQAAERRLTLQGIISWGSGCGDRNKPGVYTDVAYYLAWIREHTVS

Cytochrome P450 2C19 = Cytochrome P450 2C19 (Homo sapiens, UniProt P33261); assay: Cytochrome panel assay with activity outcomes. Panel member name: p450-cyp2c19 Compounds with AC50 equal or less than 10 uM are considered active; assay type: functional; settings: read-out: AC50
Cytochrome P450 2C9 [4] = target: T2, Cytochrome P450 2C9 (Homo sapiens, UniProt P11712)
Protein RecA = target: T3, Protein RecA (Mycobacterium tuberculosis, UniProt P9WHJ3); assay: Fluorescence Cell-Free Homogeneous Dose Retest to Identify Inhibitors of RecA-Intein Splicing Activity. [Related pubchem assays (depositor defined):AID2097, AID2223, AID489010, AID492950]; assay type: functional
T3 sequence (P9WHJ3 whole entry): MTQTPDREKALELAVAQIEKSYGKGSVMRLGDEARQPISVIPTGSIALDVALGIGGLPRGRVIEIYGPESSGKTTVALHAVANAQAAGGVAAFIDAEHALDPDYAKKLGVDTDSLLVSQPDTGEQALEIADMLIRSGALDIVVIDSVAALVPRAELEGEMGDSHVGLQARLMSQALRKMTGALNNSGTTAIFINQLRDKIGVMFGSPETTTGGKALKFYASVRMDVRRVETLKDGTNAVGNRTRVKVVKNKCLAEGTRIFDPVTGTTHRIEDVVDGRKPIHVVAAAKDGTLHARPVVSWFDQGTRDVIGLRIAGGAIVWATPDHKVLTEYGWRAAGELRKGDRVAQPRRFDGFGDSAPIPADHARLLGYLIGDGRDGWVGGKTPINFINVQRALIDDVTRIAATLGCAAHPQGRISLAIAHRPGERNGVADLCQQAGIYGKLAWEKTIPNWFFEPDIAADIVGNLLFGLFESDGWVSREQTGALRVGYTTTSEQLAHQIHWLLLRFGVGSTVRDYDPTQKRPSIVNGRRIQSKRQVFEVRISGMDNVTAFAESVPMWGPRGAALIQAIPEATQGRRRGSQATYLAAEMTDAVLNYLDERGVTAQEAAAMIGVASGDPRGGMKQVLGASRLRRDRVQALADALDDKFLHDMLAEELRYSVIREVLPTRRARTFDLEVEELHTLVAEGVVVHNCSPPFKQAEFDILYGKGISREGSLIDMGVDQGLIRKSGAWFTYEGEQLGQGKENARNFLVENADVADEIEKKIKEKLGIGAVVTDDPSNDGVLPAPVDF

Genome polyprotein = Genome polyprotein (dengue virus type 2, UniProt P29990); assay: Dengue-2 NS5 methyltransferase inhibitors, primary screen, biochemical, confirmation dose response (AID 588689); assay type: functional
[5] = target: T4, Replicative DNA helicase DnaB (Mycobacterium tuberculosis, UniProt P9WMR3); assay: DnaB intein splicing inhibitors, dose response, biochemical, cell-free fluorescence (AID 449749); assay type: functional
T4 sequence (P9WMR3 whole entry): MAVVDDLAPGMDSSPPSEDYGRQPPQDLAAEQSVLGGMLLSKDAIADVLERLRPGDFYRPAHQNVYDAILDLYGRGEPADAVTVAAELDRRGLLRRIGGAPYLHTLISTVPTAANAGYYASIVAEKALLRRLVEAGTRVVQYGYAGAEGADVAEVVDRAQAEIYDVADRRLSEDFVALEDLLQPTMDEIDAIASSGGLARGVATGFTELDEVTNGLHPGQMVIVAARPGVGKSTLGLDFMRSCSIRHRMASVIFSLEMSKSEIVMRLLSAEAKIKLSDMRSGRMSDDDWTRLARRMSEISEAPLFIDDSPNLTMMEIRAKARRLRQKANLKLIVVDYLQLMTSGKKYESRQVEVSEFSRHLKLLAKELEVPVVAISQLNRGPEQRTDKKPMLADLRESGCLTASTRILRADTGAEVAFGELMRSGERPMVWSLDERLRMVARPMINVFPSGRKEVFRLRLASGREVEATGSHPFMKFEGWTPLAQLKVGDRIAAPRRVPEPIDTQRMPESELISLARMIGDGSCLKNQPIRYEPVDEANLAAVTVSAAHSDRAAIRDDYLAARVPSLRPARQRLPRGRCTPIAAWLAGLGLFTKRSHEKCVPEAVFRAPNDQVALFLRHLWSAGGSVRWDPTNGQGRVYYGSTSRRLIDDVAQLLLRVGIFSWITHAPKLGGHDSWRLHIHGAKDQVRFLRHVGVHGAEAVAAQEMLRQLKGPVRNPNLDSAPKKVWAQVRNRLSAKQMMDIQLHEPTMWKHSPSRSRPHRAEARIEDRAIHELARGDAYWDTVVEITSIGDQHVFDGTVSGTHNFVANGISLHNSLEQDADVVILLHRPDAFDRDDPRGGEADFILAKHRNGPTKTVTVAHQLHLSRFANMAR

cells = assay type: functional
Fatty acid synthase = Fatty acid synthase (Homo sapiens, UniProt P49327); assay: FAS thioesterase domain inhibitors, dose response, biochemical, kinetic fluorescence intensity (AID 624326); assay type: functional;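 also: rate of fluorescence rise from hydrolysis of a fluorogenic O-methyl fluorescein ester substrate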
Vero = assay: cells; assay type: functional, cell-based; settings: Chlorocebus sabaeus
Cytochrome P450 2D6 = Cytochrome P450 2D6 (Homo sapiens, UniProt P10635);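 also: CYP2D6 member of a cytochrome P450 panel assay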
Cytochrome P450 3A4 = Cytochrome P450 3A4 (Homo sapiens, UniProt P08684);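 also: CYP3A4 tested as one member of a cytochrome P450 panel screen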
Cytochrome P450 2C9 [6] = target: T2, Cytochrome P450 2C9; remark: listed apart in the source

Cytochrome P450 2C19, sequence (P33261 whole entry): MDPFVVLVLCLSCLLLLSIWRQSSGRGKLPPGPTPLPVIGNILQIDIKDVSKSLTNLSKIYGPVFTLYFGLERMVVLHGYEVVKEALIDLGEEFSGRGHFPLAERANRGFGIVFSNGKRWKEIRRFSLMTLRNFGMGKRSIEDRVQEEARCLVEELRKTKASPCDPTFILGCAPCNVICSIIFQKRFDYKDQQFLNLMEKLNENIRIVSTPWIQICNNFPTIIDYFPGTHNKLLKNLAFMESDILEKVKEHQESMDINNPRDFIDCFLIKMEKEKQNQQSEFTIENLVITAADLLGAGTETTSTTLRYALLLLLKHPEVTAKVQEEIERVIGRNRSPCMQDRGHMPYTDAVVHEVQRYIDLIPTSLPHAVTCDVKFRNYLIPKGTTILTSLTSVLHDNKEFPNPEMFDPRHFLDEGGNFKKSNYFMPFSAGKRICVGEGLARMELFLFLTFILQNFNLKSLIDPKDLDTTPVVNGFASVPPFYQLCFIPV
T2 sequence (P11712 whole entry): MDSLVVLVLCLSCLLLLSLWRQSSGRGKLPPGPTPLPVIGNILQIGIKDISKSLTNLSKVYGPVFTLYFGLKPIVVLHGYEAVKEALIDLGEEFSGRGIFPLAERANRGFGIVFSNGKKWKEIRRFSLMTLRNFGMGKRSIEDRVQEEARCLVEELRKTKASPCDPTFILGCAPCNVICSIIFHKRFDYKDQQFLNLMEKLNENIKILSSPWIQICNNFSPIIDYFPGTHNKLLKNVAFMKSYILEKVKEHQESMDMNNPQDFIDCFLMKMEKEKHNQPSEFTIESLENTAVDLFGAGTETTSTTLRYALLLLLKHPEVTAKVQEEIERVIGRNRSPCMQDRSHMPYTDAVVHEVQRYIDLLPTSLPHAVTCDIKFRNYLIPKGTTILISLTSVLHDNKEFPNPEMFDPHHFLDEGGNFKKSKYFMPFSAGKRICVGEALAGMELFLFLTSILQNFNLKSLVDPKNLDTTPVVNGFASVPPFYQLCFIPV
Genome polyprotein, sequence (P29990 2492-3391 limits assumed): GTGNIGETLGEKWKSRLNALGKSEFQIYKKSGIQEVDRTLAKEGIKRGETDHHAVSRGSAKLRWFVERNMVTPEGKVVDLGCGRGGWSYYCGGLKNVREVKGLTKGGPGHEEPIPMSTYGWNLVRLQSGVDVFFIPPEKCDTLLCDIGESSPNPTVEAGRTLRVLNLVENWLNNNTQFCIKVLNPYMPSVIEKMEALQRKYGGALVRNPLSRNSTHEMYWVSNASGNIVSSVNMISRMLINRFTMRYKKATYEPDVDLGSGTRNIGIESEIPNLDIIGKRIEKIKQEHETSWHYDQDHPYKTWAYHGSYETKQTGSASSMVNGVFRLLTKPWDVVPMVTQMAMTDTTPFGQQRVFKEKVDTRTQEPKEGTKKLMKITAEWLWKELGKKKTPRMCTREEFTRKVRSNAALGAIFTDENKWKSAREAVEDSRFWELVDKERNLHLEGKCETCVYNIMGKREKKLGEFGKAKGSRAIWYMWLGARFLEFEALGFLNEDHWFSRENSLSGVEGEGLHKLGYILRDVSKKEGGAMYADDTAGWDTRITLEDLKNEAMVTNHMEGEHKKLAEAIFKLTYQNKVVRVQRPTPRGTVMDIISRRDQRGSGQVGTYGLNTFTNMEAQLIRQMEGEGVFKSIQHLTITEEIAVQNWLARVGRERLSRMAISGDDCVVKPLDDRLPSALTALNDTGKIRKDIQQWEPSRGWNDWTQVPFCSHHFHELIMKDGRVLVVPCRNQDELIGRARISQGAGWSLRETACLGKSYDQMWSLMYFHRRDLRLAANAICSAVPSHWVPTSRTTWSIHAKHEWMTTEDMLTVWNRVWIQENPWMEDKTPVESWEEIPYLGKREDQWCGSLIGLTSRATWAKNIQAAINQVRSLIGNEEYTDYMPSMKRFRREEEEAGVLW
Fatty acid synthase, sequence (P49327 whole entry, the tested form may be a part): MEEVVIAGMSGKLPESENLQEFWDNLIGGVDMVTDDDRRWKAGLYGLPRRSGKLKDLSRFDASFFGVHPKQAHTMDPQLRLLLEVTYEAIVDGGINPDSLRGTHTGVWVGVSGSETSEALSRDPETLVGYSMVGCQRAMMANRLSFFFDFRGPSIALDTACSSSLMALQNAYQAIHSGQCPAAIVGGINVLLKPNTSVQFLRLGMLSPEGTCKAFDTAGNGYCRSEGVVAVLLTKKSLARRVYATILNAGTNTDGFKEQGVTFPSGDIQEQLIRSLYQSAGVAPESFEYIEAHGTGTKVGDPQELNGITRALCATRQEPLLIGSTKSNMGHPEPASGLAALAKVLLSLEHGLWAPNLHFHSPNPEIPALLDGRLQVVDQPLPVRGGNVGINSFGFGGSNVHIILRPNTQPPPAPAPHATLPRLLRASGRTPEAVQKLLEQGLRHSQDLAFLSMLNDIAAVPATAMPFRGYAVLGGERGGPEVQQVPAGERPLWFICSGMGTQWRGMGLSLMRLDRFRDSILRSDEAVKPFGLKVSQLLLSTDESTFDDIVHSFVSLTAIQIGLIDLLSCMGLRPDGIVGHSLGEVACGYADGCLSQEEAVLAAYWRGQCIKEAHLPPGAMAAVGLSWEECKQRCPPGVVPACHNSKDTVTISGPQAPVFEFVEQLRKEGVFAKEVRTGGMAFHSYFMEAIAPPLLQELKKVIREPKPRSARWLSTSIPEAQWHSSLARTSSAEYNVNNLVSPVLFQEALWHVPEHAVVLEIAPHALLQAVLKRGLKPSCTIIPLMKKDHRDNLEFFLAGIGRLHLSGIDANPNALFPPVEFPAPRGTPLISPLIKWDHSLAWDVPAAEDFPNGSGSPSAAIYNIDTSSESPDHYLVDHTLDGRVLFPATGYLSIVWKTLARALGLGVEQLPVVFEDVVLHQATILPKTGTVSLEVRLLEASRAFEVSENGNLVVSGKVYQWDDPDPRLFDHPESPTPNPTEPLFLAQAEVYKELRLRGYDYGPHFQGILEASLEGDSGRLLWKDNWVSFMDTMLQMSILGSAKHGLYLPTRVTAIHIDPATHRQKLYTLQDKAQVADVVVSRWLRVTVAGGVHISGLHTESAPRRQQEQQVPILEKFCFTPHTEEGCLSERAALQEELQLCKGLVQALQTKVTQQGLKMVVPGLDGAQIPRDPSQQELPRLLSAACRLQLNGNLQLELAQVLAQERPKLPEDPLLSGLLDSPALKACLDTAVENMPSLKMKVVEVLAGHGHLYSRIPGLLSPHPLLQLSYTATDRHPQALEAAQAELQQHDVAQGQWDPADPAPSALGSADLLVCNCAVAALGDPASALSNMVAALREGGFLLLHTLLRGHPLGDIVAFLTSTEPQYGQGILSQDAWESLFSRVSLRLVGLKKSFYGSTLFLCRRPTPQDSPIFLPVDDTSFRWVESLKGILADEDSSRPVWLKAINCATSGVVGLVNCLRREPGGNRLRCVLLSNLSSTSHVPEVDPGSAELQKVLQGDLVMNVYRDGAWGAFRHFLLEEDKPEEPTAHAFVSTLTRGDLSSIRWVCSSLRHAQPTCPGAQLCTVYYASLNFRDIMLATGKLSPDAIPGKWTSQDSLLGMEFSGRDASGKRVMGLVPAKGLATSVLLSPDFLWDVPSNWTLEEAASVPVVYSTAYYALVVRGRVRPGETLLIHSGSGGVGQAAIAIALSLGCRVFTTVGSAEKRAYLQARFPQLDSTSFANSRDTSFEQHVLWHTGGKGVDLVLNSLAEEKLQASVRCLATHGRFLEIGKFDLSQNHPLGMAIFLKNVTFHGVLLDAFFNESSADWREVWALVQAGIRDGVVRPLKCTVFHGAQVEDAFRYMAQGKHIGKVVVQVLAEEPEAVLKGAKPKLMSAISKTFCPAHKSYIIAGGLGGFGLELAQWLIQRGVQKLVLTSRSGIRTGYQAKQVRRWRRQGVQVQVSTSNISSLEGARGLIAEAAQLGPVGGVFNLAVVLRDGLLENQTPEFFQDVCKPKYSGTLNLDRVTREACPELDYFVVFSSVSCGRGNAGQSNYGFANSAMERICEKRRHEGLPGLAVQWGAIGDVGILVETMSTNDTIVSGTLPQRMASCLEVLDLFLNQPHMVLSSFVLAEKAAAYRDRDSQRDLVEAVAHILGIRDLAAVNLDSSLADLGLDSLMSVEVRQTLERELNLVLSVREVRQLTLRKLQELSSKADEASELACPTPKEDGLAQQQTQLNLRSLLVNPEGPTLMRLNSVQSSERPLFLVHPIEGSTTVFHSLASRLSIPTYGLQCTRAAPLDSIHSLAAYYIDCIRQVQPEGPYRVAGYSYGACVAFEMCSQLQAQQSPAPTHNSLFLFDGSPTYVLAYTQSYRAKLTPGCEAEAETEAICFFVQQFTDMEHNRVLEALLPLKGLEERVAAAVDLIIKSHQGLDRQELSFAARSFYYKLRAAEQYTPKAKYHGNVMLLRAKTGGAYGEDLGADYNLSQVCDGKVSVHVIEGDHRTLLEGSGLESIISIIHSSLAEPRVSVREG
Cytochrome P450 3A4, sequence (P08684 whole entry): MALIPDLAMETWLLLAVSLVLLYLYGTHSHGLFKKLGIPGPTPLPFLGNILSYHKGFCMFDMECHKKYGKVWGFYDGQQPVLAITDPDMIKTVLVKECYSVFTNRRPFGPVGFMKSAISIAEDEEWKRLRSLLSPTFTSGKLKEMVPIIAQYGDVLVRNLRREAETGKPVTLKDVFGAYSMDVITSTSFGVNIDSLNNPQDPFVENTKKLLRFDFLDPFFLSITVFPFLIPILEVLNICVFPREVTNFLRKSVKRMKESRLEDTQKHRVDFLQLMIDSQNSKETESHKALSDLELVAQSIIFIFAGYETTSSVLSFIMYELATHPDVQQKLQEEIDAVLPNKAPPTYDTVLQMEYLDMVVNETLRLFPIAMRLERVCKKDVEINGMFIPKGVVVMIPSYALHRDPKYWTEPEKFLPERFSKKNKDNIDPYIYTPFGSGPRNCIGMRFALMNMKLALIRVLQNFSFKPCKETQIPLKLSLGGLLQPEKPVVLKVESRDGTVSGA

Question: With `Clc1ccc(OCc2nc(-c3ccccn3)no2)c(Br)c1` as the molecule, how does the AC50 [1] read?
Answer: 10.6 µM (active)

Question: What about the AC50 [2] of the same molecule?
Answer: 6.73 µM (active)

Question: What about the AC50 [3] of the same molecule?
Answer: 27.6 µM (active)

Question: Which IC50 (Coagulation factor XII) does the source give for `CS(=O)(=O)N(Cc1ccccc1)c1ccc(C(=O)NC2CCCCC2O)cc1` (stereo not given) here?
Answer: > 50 µM (inactive)

Question: Which AC50 (Cytochrome P450 2C19) does the source give for `CCOc1cc2c(C)cc(=O)oc2cc1Cl` here?
Answer: 14.1 µM (inconclusive)

Question: And the AC50 (Cytochrome P450 2C9 [4])?
Answer: inconclusive

Question: Which AC50 (Cytochrome P450 2C9 [4]) does the source give for `Cc1cccc(-n2cccc2)c1C#N` here?
Answer: inconclusive

Question: With `C#CCOc1ccc(/C=C2/C(=O)N(c3cccc(C(=O)O)c3)N=C2C)cc1OC` as the molecule, how does the EC50 (Protein RecA) read?
Answer: 2.01 µM (active)

Question: And the IC50 (Genome polyprotein)?
Answer: 8.42 µM (active)

Question: And the AC50 [5]?
Answer: 2.41 µM (active)

Question: With `CCC(C)n1nnc2c(=O)oc3ccccc3c21` (stereo not given) as the molecule, how does the AC50 (Cytochrome P450 2C19) read?
Answer: 8.91 µM (inconclusive)

Question: What about the AC50 (Cytochrome P450 2C9 [4]) of the same molecule?
Answer: inconclusive

Question: And the IC50 (cells)?
Answer: 5.77 µM (active)

Question: Which IC50 (Genome polyprotein) does the source give for `O=[N+]([O-])c1cccc(/C=C/c2nc(O)nc(O)c2[N+](=O)[O-])c1` here?
Answer: 72.8 µM (active)

Question: Which AC50 (Cytochrome P450 2C19) does the source give for `Cc1ccccc1-c1nc(N2CCOCC2)c2ccccc2n1` here?
Answer: 39.8 µM (inconclusive)

Question: What about the AC50 (Cytochrome P450 2C9 [4]) of the same molecule?
Answer: inconclusive

Question: With `NC(=NOC(=O)CCCc1ccccc1)c1cccc([N+](=O)[O-])c1` as the molecule, how does the IC50 (Fatty acid synthase) read?
Answer: 11.6 µM (active)

Question: With `OC1(c2cccs2)C[N+](c2ccc(Br)cc2)=C2SCCCN21` (stereo not given) as the molecule, how does the IC50 (Vero) read?
Answer: 14.9 µM (active)

Question: With `CCCn1cc(CN2CCCC(C(=O)c3cccc(OC)c3)C2)c(C)n1` (stereo not given) as the molecule, how does the IC50 (Coagulation factor XII) read?
Answer: > 50 µM (inactive)

Question: Which AC50 (Cytochrome P450 2C9 [4]) does the source give for `Cc1cccc2cc(=O)[nH]c(C)c12` here?
Answer: inconclusive

Question: Which IC50 (Coagulation factor XII) does the source give for `CCN(CC)c1ccc(/C=N/NS(=O)(=O)c2cccc([N+](=O)[O-])c2)cc1` here?
Answer: > 50 µM (inactive)

Question: Which AC50 (Cytochrome P450 2D6) does the source give for `CCCC(=O)/N=C1\SC2CS(=O)(=O)CC2N1c1ccc(CC)cc1` (stereo not given) here?
Answer: 15.8 µM (inconclusive)

Question: And the IC50 (Coagulation factor XII)?
Answer: > 50 µM (inactive)

Question: What about the AC50 (Cytochrome P450 3A4) of the same molecule?
Answer: 12.6 µM (inconclusive)

Question: What about the AC50 (Cytochrome P450 2C9 [6]) of the same molecule?
Answer: 10 µM (inconclusive)

Source: ChEMBL document CHEMBL1201862, “PubChem BioAssay data set” (2004)
